In EP3287436B1, “COMPOUNDS AND COMPOSITIONS FOR USE IN THE TREATMENT OF BCAT1-MEDIATED DISEASES” (Ergon Pharmaceuticals LLC, priority 2016, dated 2018):

Legend:
recombinant human BCAT1 = target: T1, recombinant human BCAT1 (Homo sapiens, UniProt P54687); test: Inhibition of BCAT1 enzymatic activity (NADH consumption, coupled leucine dehydrogenase assay); format: biochemical; conditions: for remaining activity at 0.01 µM: compound concentration 10 nM; for remaining activity at 0.1 µM: compound concentration 100 nM; for IC50: inhibition of the enzymatic activity of BCAT1, range stated for compounds 2, 7 and 8 together; for remaining activity at 0.001 µM: compound concentration 1 nM
T1 construct: purchased Abcam
T1 sequence (P54687 1-386): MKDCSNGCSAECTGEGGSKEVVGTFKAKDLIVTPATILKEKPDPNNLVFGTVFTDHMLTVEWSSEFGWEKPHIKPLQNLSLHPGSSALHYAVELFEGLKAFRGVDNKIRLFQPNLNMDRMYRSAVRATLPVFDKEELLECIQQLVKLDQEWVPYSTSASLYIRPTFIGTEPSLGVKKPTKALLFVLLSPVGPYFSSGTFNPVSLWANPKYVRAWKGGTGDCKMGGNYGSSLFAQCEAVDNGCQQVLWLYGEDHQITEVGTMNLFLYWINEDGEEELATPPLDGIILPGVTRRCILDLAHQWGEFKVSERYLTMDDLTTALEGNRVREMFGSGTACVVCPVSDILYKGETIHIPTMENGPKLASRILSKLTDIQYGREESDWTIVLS
Experimental: Inhibition of BCAT1 enzymatic activity by compounds 2. 7 and 8. The ability of the compounds as disclosed herein to inhibit BCAT1 enzymatic activity was confirmed spectrophotometrically. In this experiment, 0.2 to 0.5 µg of recombinant human BCAT1 from Abcam was added to 95 µL of a reaction buffer containing […] 5'-phosphate (PLP), 50 mM ammonium sulfate, 0.05 mM NADH, 5mM DTT, 5mM a-ketoglutarate, 10 mM leucine, and 0.95 U leucine dehydrogenase (EMD Chemicals) and various concentrations of compounds 2, 7 and 8. Addition of BCAT1 to the reaction mixture led to the consumption of NADH, which was measured fluorometrically (ex:330-370 nm; em:450 nm). The rate of change of fluorescence was then estimated over of period of 10 min (10 cycles; 1 cycle/min). The assay was performed in triplicate in a 96-well plate. In Table 1, the results were expressed as % Control Enzymatic Activity, which is defined as the BCAT1 activity observed in the reaction mixture in the absence of an inhibitor. […]

[1] = tested on: TGF-β1-stimulated human fibroblasts; test: Inhibition of collagen I production/secretion (ELISA of conditioned media); format: cell-based; conditions: for concentration at which collagen I secretion is completely inhibited: Table 2; for concentration at which collagen I secretion is inhibited: summary of Table 3; for factor of increase of the collagen inhibitory activity: relative to compound 7
Experimental: In vitro fibrosis is assessed by measuring collagen synthesis after treatment of fibroblast cells with a profibrotic stimuli such as TGF-β1 or bleomycin. Collagen secretion into the media can be quantified in conditioned media using an appropriate ELISA kit.
Confluent monolayers of human fibroblasts, plated onto duplicate 35 mm dishes, were pretreated with various concentrations of compounds 2, 6, and 7 for 30 min followed by stimulation of the cells with 7 ng/mL TGF-β1 for 48 hrs. At the end of the experiment, conditioned media were collected and assessed for the presence of secreted collagen I, whereas cells were collected and lysed. Collagen I secretion was quantified using an ELISA kit from R&D Systems per the manufacturer's instructions and expressed as arbitrary absorbance units per µg of cell lysate. In Table 2, results are shown as % Control Collagen Production, defined as the amount of collagen I secreted per µg of cell lysate from fibroblast cultures stimulated with TGF-β1 in the absence of an inhibitor. […]
Confluent monolayers of human fibroblasts, plated onto duplicate 35 mm dishes, were pretreated with various concentrations of compounds 28 and 29 and Control Collagen Production determined according to the protocol set out in Example 5. In Table 3, results are shown as % Control Collagen Production, defined as the amount of collagen I secreted per µg of cell lysate from fibroblast cultures stimulated with TGF-β1 in the absence of an inhibitor. […]

[2] = control = BCAT1 activity in the absence of an inhibitor
[3] = compound concentration 2 nM (as printed in Table 2), 30 min pretreatment, 7 ng/mL TGF-β1 for 48 hrs
[4] = compound concentration 5 nM (as printed in Table 2), 30 min pretreatment, 7 ng/mL TGF-β1 for 48 hrs
[5] = compound concentration 10 nM (as printed in Table 2), 30 min pretreatment, 7 ng/mL TGF-β1 for 48 hrs

Row | Structure (SMILES) | remaining activity at 0.01 µM (recombinant human BCAT1; [2]) [%] | remaining activity at 0.1 µM (recombinant human BCAT1; [2]) [%] | IC50 (recombinant human BCAT1) [nM] | remaining activity at 0.001 µM (recombinant human BCAT1; [2]) [%] | concentration at which collagen I secretion is completely inhibited [1] [mM] | % Control Collagen Production [1, 3] [%] | % Control Collagen Production [1, 4] [%] | % Control Collagen Production [1, 5] [%] | concentration at which collagen I secretion is inhibited [1] [mM] | factor of increase of the collagen inhibitory activity [1] | also measured
1 | CC(=O)C(C)CC(CCC#N)C(=O)O (centres unmarked) [Compound 8, 2-(2-cyanoethyl)-4-methyl-5-oxohexanoic acid] | 23 | 16 | 0.5 to 50 |  |  |  |  |  |  |  | remaining activity at 0.0005 µM (recombinant human BCAT1; compound concentration 0.5 nM, control = BCAT1 activity in the absence of an inhibitor): 47%
2 | O=C(O)CCC(C(=O)c1ccccc1)c1ccccc1 (centres unmarked) [Compound 28, 5-oxo-4,5-diphenylpentanoic acid] |  |  |  |  |  |  |  |  | 2 | 2-5 | % Control Collagen Production ([1]; compound concentration 1 mM (Table 3), protocol of Example 5): 121%; % Control Collagen Production ([1]; compound concentration 2 mM (Table 3), protocol of Example 5): 18%; % Control Collagen Production ([1]; compound concentration 5 mM (Table 3), protocol of Example 5): 0%; % Control Collagen Production ([1]; compound concentration 10 mM (Table 3), protocol of Example 5): 0%
3 | O=C(O)CCC(C(=O)c1ccc(Br)cc1)c1ccccc1 (centres unmarked) [Compound 29, 5-(4-bromophenyl)-5-oxo-4-phenylpentanoic acid] |  |  |  |  |  |  |  |  | 0.1 | 100 | % Control Collagen Production ([1]; compound concentration 0.01 mM (Table 3), protocol of Example 5): 88%; % Control Collagen Production ([1]; compound concentration 0.05 mM (Table 3), protocol of Example 5): 71%; % Control Collagen Production ([1]; compound concentration 0.1 mM (Table 3), protocol of Example 5): 8%
4 | CC(CCC(=O)O)C(=O)c1ccccc1 (centres unmarked) [Compound 6, 4-methyl-5-oxo-5-phenylpentanoic acid] |  |  |  |  | 5 to 10 | 105 | 77 | 2 |  |  | 

Second part, led by results:

Row | remaining activity at 0.01 µM (recombinant human BCAT1; [2]) [%] | remaining activity at 0.1 µM (recombinant human BCAT1; [2]) [%] | IC50 (recombinant human BCAT1) [nM] | remaining activity at 0.001 µM (recombinant human BCAT1; [2]) [%] | Structure (SMILES) | concentration at which collagen I secretion is completely inhibited [1] [mM] | % Control Collagen Production [1, 3] [%] | % Control Collagen Production [1, 4] [%] | % Control Collagen Production [1, 5] [%] | concentration at which collagen I secretion is inhibited [1] [mM] | factor of increase of the collagen inhibitory activity [1] | also measured
5 | 0 | 0 | 0.5 to 50 | 67 | CC(=O)C(CCC(=O)O)c1ccccc1 (centres unmarked) [Compound 7, 5-oxo-4-phenylhexanoic acid] | 5 to 10 | 150 | 41 | 2 | 5 to 10 |  | 
6 | 71 | 28 | 0.5 to 50 | 86 | CC(=O)C(C)CC(Cc1ccccc1)C(=O)O (centres unmarked) [Compound 2, 2-benzyl-4-methyl-5-oxohexanoic acid] | 5 to 10 | 111 | 4 |  |  |  | 
